The structures appear in SMILES notation. In brackets after ≈: the same amount, converted by molar mass. Read-outs that look alike come from different tables or passages of the source. Bounds are passed on as bounds.

One series concerns Mtb H37Rv (ATCC27294). In words: Antimycobacterial activity, microplate Alamar blue assay (MABA). The series is classed as cell-based, Mycobacterium tuberculosis. Particulars: Mycobacterium tuberculosis. Background: Alamar Blue is a resazurin reagent that responds to reducing activity.
The next series has as its system C. albicans (ATCC90028). In words: Antifungal activity, broth microdilution. The series is classed as cell-based, Candida albicans. Particulars: Candida albicans ATCC 90028, read-out: MIC. Here is the method: (§1) All synthesized compounds and the positive control drugs amphotericin B and ketoconazole were tested for their in vitro antifungal activity. Antifungal activity was evaluated against four fungi, C. albicans (ATCC90028), C. tropicalis (ATCC7349), A. fumigatus (3.5352), and C. neoformans (2.3201), by broth microdilution according to the protocols from the NCCLS (Jiang et al., [2014]). Briefly, all tested compounds were dissolved in DMSO, and the solutions were diluted with fresh broth medium. All of the fungi-seeded broth (1 × 10^5 colony-forming units [CFU]/mL) were prepared in RPMI 1640 medium and added into the serially diluted drug solution. The tubes were incubated at 28°C, and the MIC (μg/mL) was recorded 72–96 h post-incubation. Broth control (without fungi), growth controls (with fungi and without drug), solvent (DMSO) control, and drug control for both test drugs and standard drugs were set under identical conditions. The minimum drug concentration in the tubes in which no apparent growth of the organism was observed represented the MIC of the compounds.
A general note: Dilution methods test growth across graded concentrations, often in twofold steps.

The next series deals with A. fumigatus (3.5352). In words: Antifungal activity, broth microdilution. The series is classed as cell-based. The note with it: Aspergillus fumigatus; A. fumigatus 3.5352; read-out: MIC. As to the method:
as §1

The test system of a further series is C. neoformans (2.3201). Put plainly: Antifungal activity, broth microdilution. The class given is cell-based. The note with it: Cryptococcus neoformans; C. neoformans 2.3201; read-out: MIC. Here is the method:
as §1

The next series relates to C. tropicalis (ATCC7349). In words: Antifungal activity, broth microdilution. The series is classed as cell-based. Particulars: Candida tropicalis, C. tropicalis ATCC 7349, read-out: MIC. Here is the method:
as §1

Setting [1] is: Mtb H37Rv, MABA assay, read-out: MIC.
Setting [2] is: Mtb H37Rv, repeated in Table 5 for the 3D-QSAR models, read-out: MIC.
The mark [3] stands for this setting: experimental pMIC, Mtb H37Rv, Table 5, read-out: pMIC exp (converted).

A word on the melting point: it is the temperature, or range, at which the solid turns liquid. As for `COc1ccc(N2C(=O)CSC2c2c[n+]([O-])c3ccc(OC)cc3[n+]2[O-])cc1` (stereo not drawn) [2n, 7-OMe-2-(3′-P-methoxyphenyl-4′(5H)-thiazolidinone)-quinoxaline-1,4-di-N-oxide], the melting point fell in the range of 258 to 260 °C. For the same compound, in the series with Mtb H37Rv (ATCC27294) (setting [1]), the MIC worked out at 200 µg/mL. Moreover, in the series on Mtb H37Rv (ATCC27294) (setting [2]), the MIC amounted to 200 µg/mL. In the series on Mtb H37Rv (ATCC27294) (setting [3]), the MIC is 501 µM. For the same compound, the MIC in the series with C. albicans (ATCC90028) was more than 64 µg/mL. In the series on A. fumigatus (3.5352), the MIC was more than 64 µg/mL. The MIC with C. neoformans (2.3201) was more than 64 µg/mL. Moreover, the MIC in the series with C. tropicalis (ATCC7349) was found to be 64 µg/mL (≈ 160 µM).
In turn, `Cc1ccc2c(c1)[n+]([O-])c(C1SCC(=O)N1c1ccccc1)c[n+]2[O-]` (stereo not drawn) [2g, 7-CH3-2-(3′-phenyl-4′(5H)-thiazolidinone)-quinoxaline-1,4-di-N-oxide] showed a melting point of 255 to 257 °C. Also, the MIC in the series with Mtb H37Rv (ATCC27294) (setting [1]) amounted to 12.5 µg/mL. In the series on Mtb H37Rv (ATCC27294) (setting [2]), the MIC was found to be 12.5 µg/mL. Besides, in the series on Mtb H37Rv (ATCC27294) (setting [3]), the MIC is 35.4 µM. For the same compound, the MIC in the series on C. albicans (ATCC90028) came to 32 µg/mL (≈ 90.5 µM). Also, in the series with A. fumigatus (3.5352), the MIC stood at 32 µg/mL (≈ 90.5 µM). For the same compound, the MIC in the series on C. neoformans (2.3201) stood at 32 µg/mL (≈ 90.5 µM). Besides, in the series with C. tropicalis (ATCC7349), the MIC came to 16 µg/mL (≈ 45.3 µM).
Compound `COc1ccc(N2C(=O)CSC2c2c[n+]([O-])c3ccc(C)cc3[n+]2[O-])cc1` (stereo not drawn) [2i, 7-CH3-2-(3′-P-methoxyphenyl-4′(5H)-thiazolidinone)-quinoxaline-1,4-di-N-oxide] yielded a melting point of 255 to 259 °C. Also, the MIC in the series with Mtb H37Rv (ATCC27294) (setting [1]) amounted to 50 µg/mL. For the same compound, the MIC with Mtb H37Rv (ATCC27294) (setting [2]) came to 50 µg/mL. The MIC in the series with Mtb H37Rv (ATCC27294) (setting [3]) is 131 µM. For the same compound, the MIC in the series on C. albicans (ATCC90028) was found to be 64 µg/mL (≈ 167 µM). For the same compound, in the series on A. fumigatus (3.5352), the MIC was more than 64 µg/mL. Further, the MIC with C. neoformans (2.3201) is 16 µg/mL (≈ 41.7 µM). Besides, the MIC with C. tropicalis (ATCC7349) came to 32 µg/mL (≈ 83.5 µM).
`CO[C@H]1/C=C/O[C@@]2(C)Oc3c(C)c(O)c4c(O)c(c(/C=N/N5CCN(C)CC5)c(O)c4c3C2=O)NC(=O)/C(C)=C\C=C\[C@H](C)[C@H](O)[C@@H](C)[C@@H](O)[C@@H](C)[C@H](OC(C)=O)[C@@H]1C` [RMP, Rifampicin, reference compound] yielded an MIC against Mtb H37Rv (ATCC27294) of 0.125 µg/mL.
`COc1ccc2c(c1)[n+]([O-])c(C1SCC(=O)N1c1ccc(C)cc1)c[n+]2[O-]` (stereo not drawn) [2m, 7-OMe-2-(3′-P-methylphenyl-4′(5H)-thiazolidinone)-quinoxaline-1,4-di-N-oxide]: the melting point lay in the range of 257 to 259 °C. Further, the MIC in the series on Mtb H37Rv (ATCC27294) (setting [1]) came out at 100 µg/mL. Moreover, the MIC in the series on Mtb H37Rv (ATCC27294) (setting [2]) amounted to 100 µg/mL. In the series with Mtb H37Rv (ATCC27294) (setting [3]), the MIC was 261 µM. The MIC in the series with C. albicans (ATCC90028) was more than 64 µg/mL. The MIC in the series with A. fumigatus (3.5352) was more than 64 µg/mL. Also, the MIC in the series with C. neoformans (2.3201) was more than 64 µg/mL. Also, the MIC in the series on C. tropicalis (ATCC7349) is 64 µg/mL (≈ 167 µM).
In the case of `COc1ccc(N2C(=O)CSC2c2c[n+]([O-])c3ccc(F)cc3[n+]2[O-])cc1` (stereo not drawn) [2s, 7-F-2-(3′-P-methoxyphenyl-4′(5H)-thiazolidinone)-quinoxaline-1,4-di-N-oxide], the melting point was in the range of 251 to 253 °C. Besides, the MIC in the series with Mtb H37Rv (ATCC27294) (setting [1]) worked out at 25 µg/mL. Further, the MIC in the series with Mtb H37Rv (ATCC27294) (setting [2]) came out at 25 µg/mL. Also, the MIC in the series with Mtb H37Rv (ATCC27294) (setting [3]) is 64.6 µM. In the series on C. albicans (ATCC90028), the MIC turned out to be 8 µg/mL (≈ 20.7 µM). Also, in the series on A. fumigatus (3.5352), the MIC came to 8 µg/mL (≈ 20.7 µM). The MIC in the series on C. neoformans (2.3201) came to 8 µg/mL (≈ 20.7 µM). Moreover, the MIC in the series with C. tropicalis (ATCC7349) was found to be 8 µg/mL (≈ 20.7 µM).
`COc1ccc(N2C(=O)CSC2c2c[n+]([O-])c3ccccc3[n+]2[O-])cc1` (stereo not drawn) [2c, 2-(3′-P-methoxyphenyl-4′(5H)-thiazolidinone)-quinoxaline-1,4-di-N-oxide] gave a melting point of 255 to 257 °C. Besides, the MIC in the series with Mtb H37Rv (ATCC27294) (setting [1]) was found to be 12.5 µg/mL. The MIC in the series with Mtb H37Rv (ATCC27294) (setting [2]) was found to be 12.5 µg/mL. Further, the MIC with Mtb H37Rv (ATCC27294) (setting [3]) is 33.9 µM. In the series with C. albicans (ATCC90028), the MIC amounted to 64 µg/mL (≈ 173 µM). Besides, the MIC in the series on A. fumigatus (3.5352) is more than 64 µg/mL. For the same compound, in the series on C. neoformans (2.3201), the MIC was found to be 32 µg/mL (≈ 86.6 µM). The MIC in the series on C. tropicalis (ATCC7349) is 32 µg/mL (≈ 86.6 µM).
Regarding `Cc1ccc(N2C(=O)CSC2c2c[n+]([O-])c3ccccc3[n+]2[O-])cc1` (stereo not drawn) [2b, 2-(3′-P-methylphenyl-4′(5H)-thiazolidinone)-quinoxaline-1,4-di-N-oxide], the melting point is 251 to 253 °C. The MIC in the series with Mtb H37Rv (ATCC27294) (setting [1]) came out at 12.5 µg/mL. The MIC with Mtb H37Rv (ATCC27294) (setting [2]) was 12.5 µg/mL. Moreover, the MIC in the series with Mtb H37Rv (ATCC27294) (setting [3]) was 35.4 µM. In addition, in the series with C. albicans (ATCC90028), the MIC stood at 16 µg/mL (≈ 45.3 µM). Also, the MIC with A. fumigatus (3.5352) came out at 32 µg/mL (≈ 90.5 µM). In the series with C. neoformans (2.3201), the MIC came out at 32 µg/mL (≈ 90.5 µM). Further, the MIC in the series on C. tropicalis (ATCC7349) was 8 µg/mL (≈ 22.6 µM).

(Values after article PMC7424068, “Design, Synthesis, and Biological Evaluation of Novel Thiazolidinone-Containing Quinoxaline-1,4-di-N-oxides as Antimycobacterial and Antifungal Agents” (Frontiers in Chemistry, 2020).)
